The values below come from US12325697B2 (Nimbus Clio, Inc., priority 2021, dated 2025).

This test addresses Recombinant human Cbl-b (aa 36-427) (Homo sapiens (Human), UniProt Q13191). In words: Cbl-b Biochemical Assay (TR-FRET). To be noted: read-out: TR-FRET hCbl-b IC50. The gist of the method: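 Two-step TR-FRET: 6 nM biotinylated Cbl-b preincubated 30-60 min with compound, then 60 min at RT with 1-2.5 nM Src-Zap70 and 0.5 mM ATP in HEPES pH 7.0 buffer, 1% DMSO. Stopped with 5 mM EDTA plus 100 nM UBE2D2-Ub-FL-BODIPY and 1 nM streptavidin-Tb, 60 min; 520 nm signal; IC50 from 4-parameter fit.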

The structures appear in SMILES notation. Some results are limits rather than exact numbers.

Sequence of Recombinant human Cbl-b (aa 36-427) (Q13191 36-427): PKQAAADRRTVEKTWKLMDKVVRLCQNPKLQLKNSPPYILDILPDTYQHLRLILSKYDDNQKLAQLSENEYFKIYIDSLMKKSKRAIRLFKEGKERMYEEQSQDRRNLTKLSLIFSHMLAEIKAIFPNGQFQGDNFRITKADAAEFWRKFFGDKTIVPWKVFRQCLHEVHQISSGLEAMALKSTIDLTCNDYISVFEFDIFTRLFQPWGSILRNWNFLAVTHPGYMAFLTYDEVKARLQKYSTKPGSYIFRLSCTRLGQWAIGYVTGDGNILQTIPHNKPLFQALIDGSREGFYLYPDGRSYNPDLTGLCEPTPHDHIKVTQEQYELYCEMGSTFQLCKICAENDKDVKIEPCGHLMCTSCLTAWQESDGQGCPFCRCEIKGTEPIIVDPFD

Regarding `Cn1cnnc1-c1cnn(C)c1-c1ccnc(N2Cc3c(cccc3C(F)(F)F)C2=O)c1` [AAM-3, 2-(4-(1-Methyl-4-(4-methyl-4H-1,2,4-triazol-3-yl)-1H-pyrazol-5-yl)pyridin-2-yl)-4-(trifluoromethyl)isoindolin-1-one], the IC50 lay in the range of 1000 to 10000 nM.
The same measure for `Cn1cnnc1-c1ccc(C(F)(F)F)cc1-c1cccc(N2Cc3c(cccc3C(F)(F)F)C2=O)c1` [AAG-8, 2-(2′-(4-Methyl-4H-1,2,4-triazol-3-yl)-5′-(trifluoromethyl)-[1,1′-biphenyl]-3-yl)-4-(trifluoromethyl)isoindolin-1-one]: 10000 to 50000 nM; for `CCNc1cc(-c2c(-c3nncn3C)cnn2C)cc(CNC(=O)OC(C)(C)C)n1` [ABV-1, tert-Butyl ((6-(ethylamino)-4-(1-methyl-4-(4-methyl-4H-1,2,4-triazol-3-yl)-1H-pyrazol-5-yl)pyridin-2-yl)methyl)carba mate]: 10000 to 50000 nM; for `CCOc1cc(-c2c(-c3nncn3C)cnn2C)cc(N2Cc3c(cccc3C(F)(F)F)C2=O)n1` [ABH-2, 2-(6-Ethoxy-4-(1-methyl-4-(4-methyl-4H-1,2,4-triazol-3-yl)-1H-pyrazol-5-yl)pyridin-2-yl)-4-(trifluoromethyl)isoindolin-1-one]: 200 to 1000 nM.
The same measure for `CCNc1cc(-c2c(-c3nncn3C)cnn2C)cc(NC(=O)c2cc(OCCN3CCCC3)nc(C3CC3)n2)n1` [ABU-2, 2-Cyclopropyl-N-(6-(ethylamino)-4-(1-methyl-4-(4-methyl-4H-1,2,4-triazol-3-yl)-1H-pyrazol-5-yl)pyridin-2-yl)-6-(2-(pyrrolidin-1-yl)ethoxy)pyrimidine-4-carboxamide]: 200 to 1000 nM.
`CCNc1cc(-c2c(-c3nncn3C)cnn2C)cc(N2Cc3c(cc(CN)cc3C(F)(F)F)C2=O)n1` [ACG-3, 6-(Aminomethyl)-2-(6-(ethylamino)-4-(1-methyl-4-(4-methyl-4H-1,2,4-triazol-3-yl)-1H-pyrazol-5-yl)pyridin-2-yl)-4-(trifluoromethyl)isoindolin-1-one]: the half-maximal inhibitory concentration (IC50) was at most 200 nM.
Consider `CCn1ccc2c(-c3ccccc3-c3nncn3C)cc(N3Cc4c(cccc4C(F)(F)F)C3=O)nc21` [Example M-2, 2-(1-Ethyl-4-(2-(4-methyl-4H-1,2,4-triazol-3-yl)phenyl)-1H-pyrrolo[2,3-b]pyridin-6-yl)-4-(trifluoromethyl)isoindolin-1-one], for which the half-inhibitory concentration (IC50) lay in the range of 1000 to 10000 nM.
With `CCNc1cc(-c2c(-c3nncn3C)cnn2C)cc(N2Cc3c(cc(CN4CCC5(CC5)C4)cc3C(F)(F)F)C2=O)n1` [ABC-7, 6-((5-Azaspiro [2.4]heptan-5-yl)methyl)-2-(6-(ethylamino)-4-(1-methyl-4-(4-methyl-4H-1,2,4-triazol-3-yl)-1H-pyrazol-5-yl)pyridin-2-yl)-4-(trifluoromethyl)isoindolin-1-one] the figure was below 200 nM.
The same measure for `Cn1ncnc1-c1ccccc1-c1cccc(N2Cc3c(cccc3C(F)(F)F)C2=O)c1` [AAX-2, 2-(2′-(1-Methyl-1H-1,2,4-triazol-5-yl)-[1,1′-biphenyl]-3-yl)-4-(trifluoromethyl)isoindolin-1-one]: 10000 to 50000 nM; for `CCNc1cc(-c2c(-c3nncn3C)cnn2C)cc(N2Cc3c(cc(OC4CN(C)C4)cc3C(F)(F)F)C2=O)n1` [ACV-2, 2-(6-(Ethylamino)-4-(1-methyl-4-(4-methyl-4H-1,2,4-triazol-3-yl)-1H-pyrazol-5-yl)pyridin-2-yl)-6-((1-methylazetidin-3-yl)oxy)-4-(trifluoromethyl)isoindolin-1-one]: at most 200 nM; for `Cn1cnnc1-c1ccccc1-c1cc(N2CCCC2)nc(N2Cc3c(cccc3C(F)(F)F)C2=O)c1` [AC-3]: 1000 to 10000 nM.
With `CCNc1cc(-c2ccc(Cl)cc2-c2nncn2C)cc(N2Cc3c(cccc3C(F)(F)F)C2=O)n1` [ACR-7, 2-(4-(4-Chloro-2-(4-methyl-4H-1,2,4-triazol-3-yl)phenyl)-6-(ethylamino)pyridin-2-yl)-4-(trifluoromethyl)isoindolin-1-one] the figure was at most 200 nM; with `CCNc1cc(-c2c(-c3nncn3C)cnn2C)cc(N2Cc3c(cc(CN4CCC(F)C4)cc3C(F)(F)F)C2=O)n1` (stereo not shown) [ABP-3, 2-(6-(Ethylamino)-4-(1-methyl-4-(4-methyl-4H-1,2,4-triazol-3-yl)-1H-pyrazol-5-yl)pyridin-2-yl)-6-((3-fluoropyrrolidin-1-yl)methyl)-4-(trifluoromethyl)isoindolin-1-one], at most 200 nM.
As for `Cn1cnnc1-c1ccccc1-c1cccc(N2Cc3c(cc(CN4CC[C@@H](F)C4)cc3C(F)(F)F)C2=O)c1` [Example Y-2, (R)-6-((3-Fluoropyrrolidin-1-yl)methyl)-2-(2′-(4-methyl-4H-1,2,4-triazol-3-yl)-[1,1′-biphenyl]-3-yl)-4-(trifluoromethyl)isoindolin-1-one], the 50% inhibitory concentration (IC50) lay within 200 to 1000 nM.
With `CCOc1cc(-c2c(-c3nncn3C)cnn2C)cc(N2Cc3c(cccc3C(F)(F)F)C2=O)c1` [AAI-7, 2-(3-Ethoxy-5-(1-methyl-4-(4-methyl-4H-1,2,4-triazol-3-yl)-1H-pyrazol-5-yl)phenyl)-4-(trifluoromethyl) isoindolin-1-one] the figure was 200 to 1000 nM; with `CCNc1cc(-c2c(-c3nncn3C)cnn2C)cc(N2Cc3c(cc(CNCCO)cc3C(F)(F)F)C2=O)n1` [ACI-1, 2-(6-(Ethylamino)-4-(1-methyl-4-(4-methyl-4H-1,2,4-triazol-3-yl)-1H-pyrazol-5-yl)pyridin-2-yl)-6-(((2-hydroxyethyl)amino)methyl)-4-(trifluoromethyl)isoindolin-1-one], at most 200 nM.
Turning to `CCNc1cc(-c2ccccc2-c2nncn2C)cc(N2Cc3c(cc(CN[C@H]4CCC[C@H]4O)cc3C(F)(F)F)C2=O)n1` [AR-1, 2-(6-(Ethylamino)-4-(2-(4-methyl-4H-1,2,4-triazol-3-yl)phenyl)pyridin-2-yl)-6-((((1S,2R)-2-hydroxycyclopentyl)amino)methyl)-4-(trifluoromethyl)isoindolin-1-one], the IC50 is at most 200 nM.
The same measure for `Cn1cnnc1-c1ccccc1-c1cc(N2Cc3c(cccc3C(F)(F)F)C2=O)nc2[nH]ccc12` [Example L-5, 2-(4-(2-(4-Methyl-4H-1,2,4-triazol-3-yl)phenyl)-1H-pyrrolo[2,3-b]pyridin-6-yl)-4-(trifluoromethyl)isoindolin-1-one]: 10000 to 50000 nM.
With `COc1ccc([C@@H](C)Cc2nncn2C)cc1N1Cc2c(cc(CN3CCCC3)cc2C(F)(F)F)C1=O` [Example F-9, (S)-2-(2-Methoxy-5-(1-(4-methyl-4H-1,2,4-triazol-3-yl)propan-2-yl)phenyl)-6-(pyrrolidin-1-ylmethyl)-4-(trifluoromethyl)isoindolin-1-one] the figure was 1000 to 10000 nM; with `Cn1cnnc1-c1ccccc1-c1cc(C(=O)O)cc(N2Cc3c(cccc3C(F)(F)F)C2=O)c1` [Example I-1, 2′-(4-Methyl-4H-1,2,4-triazol-3-yl)-5-(1-oxo-4-(trifluoromethyl)isoindolin-2-yl)-[1,1′-biphenyl]-3-carboxylic acid], 10000 to 50000 nM; with `Cc1nc[nH]c1-c1ccccc1-c1cccc(N2Cc3c(cccc3C(F)(F)F)C2=O)c1` [AAV-6, 2-(2′-(4-Methyl-1H-imidazol-5-yl)-[1,1′-biphenyl]-3-yl)-4-(trifluoromethyl)isoindolin-1-one], 1000 to 10000 nM.
The same measure for `Cn1cnnc1-c1ccccc1-c1cc(N2Cc3c(cccc3C(F)(F)F)C2=O)nc(C2(CO)CC2)c1` [ACU-2, 2-(6-(1-(Hydroxymethyl)cyclopropyl)-4-(2-(4-methyl-4H-1,2,4-triazol-3-yl)phenyl)pyridin-2-yl)-4-(trifluoromethyl)isoindolin-1-one]: at most 200 nM.
In the case of `CCNc1cc(-c2ccccc2-c2nncn2C)cc(N2Cc3c(cc(CO)cc3C(F)(F)F)C2=O)n1` [AD-3, 2-(6-(Ethylamino)-4-(2-(4-methyl-4H-1,2,4-triazol-3-yl)phenyl)pyridin-2-yl)-6-(hydroxymethyl)-4-(trifluoromethyl)isoindolin-1-one], the concentration for half-maximal inhibition (IC50) was at most 200 nM.
The same measure for `Cn1cnnc1-c1ccncc1-c1cccc(N2Cc3c(cccc3C(F)(F)F)C2=O)c1` [ABB-5, 2-[3-[4-(4-Methyl-1,2,4-triazol-3-yl)pyridin-3-yl]phenyl]-4-(trifluoromethyl)-3H-isoindol-1-one]: 1000 to 10000 nM.
With `CCNc1cc(-c2ccccc2-c2nncn2C)cc(N2Cc3c(cc(COC)cc3C(F)(F)F)C2=O)n1` [AS-2, 2-(6-(Ethylamino)-4-(2-(4-methyl-4H-1,2,4-triazol-3-yl)phenyl)pyridin-2-yl)-6-(methoxymethyl)-4-(trifluoromethyl)isoindolin-1-one] the figure was at most 200 nM; with `Cn1cnnc1-c1cnn(C)c1-c1cc(O)nc(N2Cc3c(cc(CN4CCC5(CC5)C4)cc3C(F)(F)F)C2=O)c1` [ABE-1, 6-((5-Azaspiro [2.4]heptan-5-yl)methyl)-2-(6-hydroxy-4-(1-methyl-4-(4-methyl-4H-1,2,4-triazol-3-yl)-1H-pyrazol-5-yl)pyridin-2-yl)-4-(trifluoromethyl)isoindolin-1-one], 1000 to 10000 nM.
The same measure for `CNC(=O)c1cc(-c2ccccc2-c2nncn2C)cc(N2Cc3c(cccc3C(F)(F)F)C2=O)c1` [Example O-3, N-Methyl-2′-(4-methyl-4H-1,2,4-triazol-3-yl)-5-(1-oxo-4-(trifluoromethyl)isoindolin-2-yl)-[1,1′-biphenyl]-3-carboxamide]: 10000 to 50000 nM; for `Cn1cnnc1-c1cnn(C)c1-c1cc(CN)nc(N2Cc3c(cccc3C(F)(F)F)C2=O)c1` [ABG-3, 2-(6-(Aminomethyl)-4-(1-methyl-4-(4-methyl-4H-1,2,4-triazol-3-yl)-1H-pyrazol-5-yl)pyridin-2-yl)-4-(trifluoromethyl)isoindolin-1-one]: 10000 to 50000 nM.
